Experimental data: article PMC12621200, “Giving an Enzyme Scissors: Serotonin Derivatives as Potent Organocatalytic Switches for DNA Repair Enzyme OGG1” (Journal of Medicinal Chemistry, 2025)
In brackets after ≈: the same amount, converted by molar mass. Entries after “also recorded” stand apart in the source; their conditions may differ. Read-outs that look alike come from different tables or passages of the source.

Tests used:
OGG1 [1] = target: T1, OGG1 (Homo sapiens, UniProt O15527); assay: Biochemical fluorescence (fluorophore-quencher) assay of OGG1 incision rate, 8-oxoA substrate; conditions: for AcLE: (1.37/#heavy atoms) × pAC50; for AC50: concentration giving 50% of the incision rate of OGG1 with APE1 (2 nM) control
T1 construct: made in house
T1 sequence (O15527 whole entry): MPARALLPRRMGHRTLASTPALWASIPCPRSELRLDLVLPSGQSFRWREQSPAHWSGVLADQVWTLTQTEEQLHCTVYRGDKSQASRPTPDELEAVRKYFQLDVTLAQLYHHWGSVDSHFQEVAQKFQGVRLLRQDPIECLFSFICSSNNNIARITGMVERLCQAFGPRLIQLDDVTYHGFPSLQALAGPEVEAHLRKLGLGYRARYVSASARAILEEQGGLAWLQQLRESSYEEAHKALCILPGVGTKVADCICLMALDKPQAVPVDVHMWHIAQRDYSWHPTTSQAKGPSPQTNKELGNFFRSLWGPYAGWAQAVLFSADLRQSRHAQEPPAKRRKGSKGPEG

[2] = test system: panel of DNA glycosylases and NUDIX nucleotide binding proteins; assay: Selectivity: lowest IC50 in glycosylase/NUDIX panel divided by OGG1 AC50; assay type: biochemical; conditions: lowest IC50 against panel / OGG1 AC50
NUDT15 = target: T2, NUDT15 (Homo sapiens, UniProt Q9NV35); assay: Selectivity screen, malachite green assay; assay type: biochemical; conditions: compound 30 at 99 µM
T2 construct: made in house
T2 sequence (Q9NV35 1-164): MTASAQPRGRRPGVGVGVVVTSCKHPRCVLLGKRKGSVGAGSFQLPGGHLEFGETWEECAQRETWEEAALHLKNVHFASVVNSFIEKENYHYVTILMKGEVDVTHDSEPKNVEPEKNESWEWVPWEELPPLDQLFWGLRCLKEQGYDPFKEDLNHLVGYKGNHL

NUDT22 = target: T3, NUDT22 (Homo sapiens, UniProt Q9BRQ3); assay: Selectivity screen, malachite green assay; assay type: biochemical; conditions: compound 30 at 99 µM
T3 construct: made in house
T3 sequence (Q9BRQ3 1-303): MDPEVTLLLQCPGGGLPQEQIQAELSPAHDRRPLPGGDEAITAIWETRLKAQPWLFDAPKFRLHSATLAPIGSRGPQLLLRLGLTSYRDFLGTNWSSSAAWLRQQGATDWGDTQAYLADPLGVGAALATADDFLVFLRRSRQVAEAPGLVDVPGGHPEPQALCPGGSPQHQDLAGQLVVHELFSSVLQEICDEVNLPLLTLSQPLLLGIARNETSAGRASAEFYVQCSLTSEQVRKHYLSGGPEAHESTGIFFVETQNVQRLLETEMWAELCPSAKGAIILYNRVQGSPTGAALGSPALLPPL

NUDT5 = target: T4, NUDT5 (Homo sapiens, UniProt Q9UKK9); assay: Selectivity screen, malachite green assay; assay type: biochemical; conditions: compound 30 at 99 µM
T4 construct: made in house

APE1 = target: T5, APE1 (Homo sapiens, UniProt P27695); assay: Selectivity screen; assay type: biochemical; conditions: compound 30 at 99 µM
T5 construct: made in house
T5 sequence (P27695 whole entry, species assumed): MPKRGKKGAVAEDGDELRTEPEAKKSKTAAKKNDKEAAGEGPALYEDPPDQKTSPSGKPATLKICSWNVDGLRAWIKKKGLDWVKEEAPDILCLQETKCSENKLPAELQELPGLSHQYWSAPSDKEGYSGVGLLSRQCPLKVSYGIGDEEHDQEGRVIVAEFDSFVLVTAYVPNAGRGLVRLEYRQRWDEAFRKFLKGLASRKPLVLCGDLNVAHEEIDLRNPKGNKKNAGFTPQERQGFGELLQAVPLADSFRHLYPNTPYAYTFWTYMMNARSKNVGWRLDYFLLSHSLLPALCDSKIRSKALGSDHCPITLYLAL

MTH1 = MTH1 (Homo sapiens, UniProt P36639); assay: Selectivity screen; assay type: biochemical; conditions: compound 30 at 99 µM
MPG = target: T6, MPG (Homo sapiens, UniProt P29372); assay: Selectivity screen, glycosylase inhibition in kinetic mode; assay type: biochemical; conditions: compound 30 at 99 µM
T6 construct: made in house
T6 sequence (P29372 18-298, species assumed): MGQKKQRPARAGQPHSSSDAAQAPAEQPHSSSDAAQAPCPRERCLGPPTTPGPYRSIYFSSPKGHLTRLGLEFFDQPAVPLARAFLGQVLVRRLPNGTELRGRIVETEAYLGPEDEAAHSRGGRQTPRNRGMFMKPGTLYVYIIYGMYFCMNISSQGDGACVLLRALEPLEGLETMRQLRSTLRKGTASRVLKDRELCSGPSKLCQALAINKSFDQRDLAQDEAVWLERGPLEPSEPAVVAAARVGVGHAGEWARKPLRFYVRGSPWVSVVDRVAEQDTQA

NEIL1 = target: T7, NEIL1 (Homo sapiens, UniProt Q96FI4); assay: as above; assay type: biochemical; conditions: compound 30 at 99 µM
T7 construct: made in house
T7 sequence (Q96FI4 whole entry, species assumed): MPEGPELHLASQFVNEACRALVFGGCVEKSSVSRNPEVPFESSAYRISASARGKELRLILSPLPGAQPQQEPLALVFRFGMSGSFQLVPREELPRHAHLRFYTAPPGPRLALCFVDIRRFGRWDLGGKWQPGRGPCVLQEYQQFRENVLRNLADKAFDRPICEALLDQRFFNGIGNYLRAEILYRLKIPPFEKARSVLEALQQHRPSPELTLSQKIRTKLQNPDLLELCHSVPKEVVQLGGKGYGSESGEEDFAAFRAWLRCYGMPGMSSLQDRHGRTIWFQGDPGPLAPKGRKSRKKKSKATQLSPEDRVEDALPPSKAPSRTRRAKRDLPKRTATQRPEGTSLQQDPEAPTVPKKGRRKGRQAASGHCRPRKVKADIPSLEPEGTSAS

NTHL1 = target: T8, NTHL1 (Homo sapiens, UniProt P78549); assay: as above; assay type: biochemical; conditions: compound 30 at 99 µM
T8 construct: made in house
T8 sequence (P78549 23-304): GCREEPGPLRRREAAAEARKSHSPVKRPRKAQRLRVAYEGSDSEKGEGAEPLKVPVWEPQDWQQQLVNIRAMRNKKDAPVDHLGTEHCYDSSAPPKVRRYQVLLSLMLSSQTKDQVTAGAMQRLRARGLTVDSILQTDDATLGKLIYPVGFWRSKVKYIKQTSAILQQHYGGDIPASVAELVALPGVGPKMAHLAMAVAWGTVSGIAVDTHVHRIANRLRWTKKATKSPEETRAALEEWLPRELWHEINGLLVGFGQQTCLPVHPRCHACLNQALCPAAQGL

TDG = target: T9, TDG (Homo sapiens, UniProt Q13569); assay: as above; assay type: biochemical; conditions: compound 30 at 99 µM
T9 construct: made in house
T9 sequence (Q13569 whole entry, species assumed): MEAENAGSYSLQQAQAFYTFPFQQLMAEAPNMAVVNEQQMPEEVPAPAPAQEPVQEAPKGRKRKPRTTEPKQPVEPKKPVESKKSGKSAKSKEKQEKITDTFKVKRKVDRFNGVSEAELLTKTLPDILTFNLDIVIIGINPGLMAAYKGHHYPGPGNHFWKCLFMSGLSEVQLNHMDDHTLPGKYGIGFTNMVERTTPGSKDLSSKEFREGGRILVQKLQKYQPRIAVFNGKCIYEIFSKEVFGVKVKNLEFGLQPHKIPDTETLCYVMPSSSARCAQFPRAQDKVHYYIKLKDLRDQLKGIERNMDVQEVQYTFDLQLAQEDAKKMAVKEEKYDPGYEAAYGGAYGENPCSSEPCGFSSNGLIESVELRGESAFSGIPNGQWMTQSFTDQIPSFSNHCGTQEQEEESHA

UNG = UNG (Homo sapiens, UniProt P13051); assay: as above; assay type: biochemical; conditions: compound 30 at 99 µM
UNG, sequence (P13051 94-313 limits assumed): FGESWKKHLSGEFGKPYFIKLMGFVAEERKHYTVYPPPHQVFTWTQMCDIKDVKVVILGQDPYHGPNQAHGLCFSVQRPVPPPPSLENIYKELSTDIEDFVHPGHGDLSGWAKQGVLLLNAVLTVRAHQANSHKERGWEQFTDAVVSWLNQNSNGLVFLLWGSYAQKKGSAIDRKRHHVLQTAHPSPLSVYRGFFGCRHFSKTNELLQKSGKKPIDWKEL

[3] = test system: BJ-RAS and BJ-TERT cell lines; assay: Resazurin cell viability assay for toxicity testing; assay type: cell-based; conditions: for toxicity in words: BJ-TERT and BJ-RAS cells, 30 at 100 μM over several days; for toxicity: incubation in BJ-RAS and BJ-TERT cell lines
[4] = Kinetic solubility assay in PBS; assay type: physicochemical; conditions: for solubility at 2 h: phosphate-buffered saline, 25 °C, kinetic from dmso stock, kinetic solubility in PBS buffer (pH 7.4), read-out: aq. solubility
[5] = Microsomal stability assay; assay type: in vitro ADME, human; conditions: for half-life at 2 μM: human, liver microsomes
[6] = Caco-2 permeability assay; assay type: in vitro ADME; conditions: human, Caco-2, pH 7.4; for efflux ratio at 90 min, 10 μM: P app (B to A) / P app (A to B)
Caco-2 cell line = assay: Caco-2 permeability assay; assay type: in vitro ADME
OGG1 [7] = target: T1, OGG1; assay: hOGG1 activity assay on radiolabeled 8-oxoG-containing oligonucleotide (urea-PAGE); assay type: biochemical; conditions: for stimulation of OGG1 AP lyase activity (incised substrate after 4 min): 6.25 μM TH10785, 6.25 μM 30, 10 μM 38, 10 nM hOGG1; for incision mode: elimination products of AP-site cleavage
K249A mutant OGG1 = target: T10, K249A mutant OGG1 (Homo sapiens, UniProt O15527, K249A); assay: AP-lyase assay on radiolabeled AP-site-containing oligonucleotide (PAGE); assay type: biochemical; conditions: Figure S8
T10 construct: made in house
T10 sequence (O15527 whole entry K249A): as the sequence (O15527 whole entry) above, with K249A counted along it

OGG1 [8] = target: T1, OGG1; assay: NaBH4 Schiff-base trapping assay; assay type: biochemical; conditions: AP or 8-oxoG DNA substrates; 6.25 μM TH10785, 6.25 μM 30, 10 μM 38
S326C hOGG1 = target: T11, S326C hOGG1 (Homo sapiens, UniProt O15527, S326C); assay: Fluorophore-quencher assay with OGG1 mutants; assay type: biochemical; conditions: 0.25 μM of 38, 50 nM S326C hOGG1
T11 construct: made in house
T11 sequence (O15527 whole entry S326C): as the sequence (O15527 whole entry) above, with S326C counted along it

[9] = test system: C253Y, F319A, K249W or D268A hOGG1 (active site mutants); assay: Fluorophore-quencher assay with OGG1 mutants; assay type: biochemical, human; conditions: 0.25 μM of 38, 10 nM enzyme
Lys249Trp mutant of OGG1 = target: T12, Lys249Trp mutant of OGG1 (Homo sapiens, UniProt O15527, K249W); assay: Fluorophore-quencher assay with OGG1 mutants; assay type: biochemical; conditions: standard fluorescence assay
T12 construct: made in house
T12 sequence (O15527 whole entry K249W): as the sequence (O15527 whole entry) above, with K249W counted along it

[10] = test system: activated peripheral blood mononuclear cells (human T cells); assay: Activated peripheral blood mononuclear cell proliferation assay; assay type: cell-based
[11] = Microsomal stability assay; assay type: in vitro ADME; conditions: pH 7.4; mouse liver microsomes
[12] = basic nitrogen; cited from earlier work
[13] = Caco-2, in the presence of P-gp inhibitor (verapamil)

NCCc1c(-c2cccnc2)[nH]c2ccc(O)cc12 [Compound 30, 3-(2-Aminoethyl)-2-(pyridin-3-yl)-1H-indol-5-ol]
AcLE (OGG1 [1]): 0.456 | AC50 (OGG1 [1]; AC50 (CI95%)): 580 nM | improvement of potency over 1 (OGG1 [1]; AC50 ratio): 10 fold | selectivity [2]: >150-fold | inhibition (NUDT15): No effect | inhibition (NUDT22): No effect | inhibition (NUDT5): No effect | inhibition (APE1): No effect | inhibition at 99 µM (MTH1): 34% | inhibition at 99 µM (MPG): 17% | inhibition at 99 µM (NEIL1): 13% | inhibition at 99 µM (NTHL1): 25% | inhibition at 99 µM (TDG): 55% | inhibition at 99 µM (UNG): 31% | toxicity in words [3]: no detectable toxicity | toxicity [3]: >100 µM | higher aqueous solubility compared to TH10785 [4]: 58 fold | solubility at 2 h ([4]; pH 7.4, aqueous buffer): > 300 µM | half-life at 2 μM ([5]; pH 7.4, human liver microsomes, read-out: t 1/2): 3.55 h | half-life at 2 μM ([5]; pH 7.4, human microsomes, read-out: microsomal half-life / metabolic stability): > 3.5 h | k el at 2 μM ([5]; pH 7.4, human liver microsomes): 5e-05 s⁻¹ | microsomal CLint at 2 μM ([5]; pH 7.4, human liver microsomes): 8 µL/min/mg | Papp A→B at 90 min, 10 µM [6]: 0.53 ×10⁻⁶ cm/s | Papp B→A at 90 min, 10 µM [6]: 2.15 ×10⁻⁶ cm/s | efflux ratio at 90 min, 10 μM [6]: 4.1 | P app (AB) (Caco-2 cell line; [13]): 1.07 ×10⁻⁶ cm/s | P app (BA) (Caco-2 cell line; [13]): 1.87 ×10⁻⁶ cm/s | P-gp substrate assessment (Caco-2 cell line; decrease of efflux with verapamil): P-gp substrate | stimulation of OGG1 AP lyase activity (incised substrate after 4 min) (OGG1 [7]): not significant | incision mode (OGG1 [7]): primarily induced β-elimination and β | restoration of AP-lyase activity of Lys249Ala mutant (K249A mutant OGG1): failed to restore AP-lyase activity | effect on level of cross-linked product (Schiff-base formation) (OGG1 [8]): no discernible effect

NCCc1c(-c2cccnc2)[nH]c2cc(F)c(O)cc12 [Compound 38, 3-(2-Aminoethyl)-6-fluoro-2-(pyridin-3-yl)-1H-indol-5-ol]
AC50 (OGG1 [1]; read-out: AC50 (CI95%)): 40 nM | stimulation of OGG1 AP lyase activity (incised substrate after 4 min) (OGG1 [7]): Stimulation of OGG1 AP lyase activity was observed | incision mode (OGG1 [7]): primarily induced β-elimination | effect on level of cross-linked product (Schiff-base formation) (OGG1 [8]): no discernible effect | effect on AP-lyase activity of Ser326Cys mutant (S326C hOGG1): accelerated the AP-lyase activity | restoration of activity in active site mutants [9]: did not restore activity | restoration of activity of Lys249Trp mutant (Lys249Trp mutant of OGG1): failed to restore activity

c1ccc2c(NC3CCCCC3)nc(C3CC3)nc2c1 [TH10785, reference compound]
AcLE (OGG1 [1]): 0.419 | AC50 (OGG1 [1]; read-out: AC50 (CI95%)): 870 nM | AcLLE (OGG1 [1]; pAC50 – clogP): 1.57 | selectivity [2]: >120-fold | toxicity in words [3]: some toxicity | toxicity [3]: > 18 µM | effect on proliferation ([10]; CD3/CD28/IL-2 activated cells, 96 h): suppresses proliferation in a dose-dependent manner at 10 and 20 μM; also recorded: inhibits proliferation | toxicity ([10]; value obtained using PBMCs): 20 µM | solubility at 2 h ([4]; aqueous buffer): 6 µM (≈ 1.6 µg/mL) | microsomal CLint at 2 μM ([5]; pH 7.4, human liver microsomes): 18 µL/min/mg | microsomal CLint at 2 μM [11]: 347 µL/min/mg | Papp A→B at 90 min, 10 µM [6]: 1.5 ×10⁻⁶ cm/s | Papp B→A at 90 min, 10 µM [6]: 4.9 ×10⁻⁶ cm/s | efflux ratio at 90 min, 10 μM [6]: 3.3 | stimulation of OGG1 AP lyase activity (incised substrate after 4 min) (OGG1 [7]): Stimulation of OGG1 AP lyase activity was observed | incision mode (OGG1 [7]): both β and β,δ-elimination products and β,δ | effect on level of cross-linked product (Schiff-base formation) (OGG1 [8]): no discernible effect | pK a [12]: ≈ 6.55
